From patent US11566057B2, “Long-acting co-agonists of the glucagon and GLP-1 receptors” (Merck Sharp & Dohme Corp., priority 2017, dated 2023)
Like-named read-outs stand apart in the source and are kept apart here. Numbered stars: 1 amine (or outer) side, 2 acyl side, 3 side chain; on linkers, the order of the positions; unused ones are H or OH. Square brackets hold non-standard residues; d marks the D form. Side chains are listed from the residue outwards. Peptide text beside a SMILES is read from it. * marks the point of attachment. C20 diacid = O=C(O)CCCCCCCCCCCCCCCCCCC(=O)*; Phe(4-CH2NH2) = NCc1ccc(C[C@H](N)C(=O)O)cc1; C18 diacid = O=C(O)CCCCCCCCCCCCCCCCC(=O)*; αMeW = C[C@](N)(Cc1c[nH]c2ccccc12)C(=O)O; γGlu = O=C(O)[C@H](CCC(=O)[*:2])N[*:1]; Met(O2) = CS(=O)(=O)CC[C@H](N)C(=O)O; αMeD = C[C@](N)(CC(=O)O)C(=O)O; AEEA = NCCOCCOCC(=O)O; Aib = CC(C)(N)C(=O)O

How the values were obtained:
[1] = target: T1, human GCGR (Homo sapiens, UniProt P47871); assay: cAMP activity assay at the Glucagon receptor (GCGR); assay type: cell-based; conditions: for hGCGR/hGLP1R (hTone): ratio of GCGR EC50 to GLP1R EC50
T1 construct: expressed in transfected cells; growth medium holds Blasticidin and Hygromycin
Protocol: (§1) Activity of the peptides at the Glucagon receptor (GCGR) and GLP-1 receptor (GLP1R) was measured in a cAMP activity assay.
(§2) GCG/GLP-1 receptor co-agonist peptides were dissolved in 100% DMSO (dimethyl sulfoxide) and serially diluted to generate 10 point titrations. The peptide solutions were then transferred into 384-well assay plates (150 nL/well). Assay ready frozen cells expressing human GLP1R or human GCGR were suspended in growth media consisting of DMEM medium (GIBCO®), 10% FBS (GIBCO®), 1×NEAA(GIBCO®), 1×P/S (GIBCO®), 10 ug/mL Blasticidin (GIBCO®) and 200 μg/mL Hygromycin (GIBCO®). […] The cell suspensions (15 μL) were then added to the assay plates containing the peptide solutions (30,000 cells/well for human GCGR; 10,000 cells/well for human GLP1R). The cells were incubated for 1 hour at room temperature in the dark. Production of cAMP was determined using HitHunter™ cAMPXS kits (DiscoverX) following manufacturer protocol. The plates were incubated for overnight at room temperature in the dark. Luminescence was measured using an EnVision Multilabel plate reader (Perkin Elmer). Native GLP-1 and Glucagon (Bachem) are used as control peptides. EC50 values were calculated using uses a 4 parameter logistic fit based on the Levenberg-Marquardt algorithm.

[2] = target: T2, human GLP1R (Homo sapiens, UniProt P43220); assay: cAMP activity assay at the GLP-1 receptor (GLP1R); assay type: cell-based; conditions: summary statement: EC50 at each of the glucagon and GLP-1 receptors; read-out: EC50 at the GLP-1 receptor
T2 construct: expressed in transfected cells; growth medium holds Blasticidin and Hygromycin
Protocol: as §1, §2

[3] = cells expressing human GCGR, cAMP production, buffer with or without 20% human serum (not stated which), read-out: GCGR EC50 human

T1 sequence (P47871 26-477): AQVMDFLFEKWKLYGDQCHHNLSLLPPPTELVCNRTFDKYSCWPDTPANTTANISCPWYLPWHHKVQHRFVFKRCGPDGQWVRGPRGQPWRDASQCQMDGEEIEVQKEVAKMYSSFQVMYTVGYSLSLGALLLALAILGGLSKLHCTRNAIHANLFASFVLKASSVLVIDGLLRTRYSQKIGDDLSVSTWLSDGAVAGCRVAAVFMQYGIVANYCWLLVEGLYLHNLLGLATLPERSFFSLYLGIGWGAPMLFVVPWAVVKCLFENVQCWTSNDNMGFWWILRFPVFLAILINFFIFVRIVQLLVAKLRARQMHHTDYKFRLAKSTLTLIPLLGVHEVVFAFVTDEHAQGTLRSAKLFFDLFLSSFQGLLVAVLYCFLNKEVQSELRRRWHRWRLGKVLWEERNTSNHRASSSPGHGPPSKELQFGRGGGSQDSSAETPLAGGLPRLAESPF
T2 sequence (P43220 24-463): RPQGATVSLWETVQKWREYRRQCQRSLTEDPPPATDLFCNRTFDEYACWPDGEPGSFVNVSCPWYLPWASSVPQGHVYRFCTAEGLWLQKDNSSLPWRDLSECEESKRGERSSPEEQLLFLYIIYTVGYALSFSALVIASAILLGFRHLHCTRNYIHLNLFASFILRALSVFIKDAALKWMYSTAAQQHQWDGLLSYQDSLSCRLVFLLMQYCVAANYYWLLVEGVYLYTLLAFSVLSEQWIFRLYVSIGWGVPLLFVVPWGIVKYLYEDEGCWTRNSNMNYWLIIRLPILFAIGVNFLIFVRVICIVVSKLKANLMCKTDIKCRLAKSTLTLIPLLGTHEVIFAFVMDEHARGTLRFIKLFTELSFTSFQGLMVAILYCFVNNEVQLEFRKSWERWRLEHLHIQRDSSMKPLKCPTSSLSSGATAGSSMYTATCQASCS

CC(C)C[C@H](NC(=O)[C@H](Cc1c[nH]c2ccccc12)NC(=O)[C@H](CCCCNC(=O)COCCOCCNC(=O)COCCOCCNC(=O)CC[C@H](NC(=O)CCCCCCCCCCCCCCCCCCC(=O)O)C(=O)O)NC(=O)[C@@H](NC(=O)[C@H](Cc1ccccc1)NC(=O)[C@H](CC(=O)O)NC(=O)[C@H](CCC(N)=O)NC(=O)[C@H](C)NC(=O)[C@H](C)NC(=O)[C@H](CCCNC(=N)N)NC(=O)C(C)(C)NC(=O)[C@H](CC(=O)O)NC(=O)[C@H](CC(C)C)NC(=O)[C@H](Cc1ccc(O)cc1)NC(=O)[C@H](CCCCN)NC(=O)[C@H](CO)NC(=O)[C@H](Cc1ccc(O)cc1)NC(=O)[C@H](CC(=O)O)NC(=O)[C@H](CO)NC(=O)[C@@H](NC(=O)[C@H](Cc1ccccc1)NC(=O)[C@@H](NC(=O)CNC(=O)[C@H](CCC(N)=O)NC(=O)C(C)(C)NC(=O)[C@@H](N)Cc1c[nH]cn1)[C@@H](C)O)[C@@H](C)O)C(C)C)C(=O)N[C@@H](CCS(C)(=O)=O)C(=O)N[C@@H](CC(=O)O)C(=O)N[C@H](C(N)=O)[C@@H](C)O [TP576] (H-H[Aib]QGTFTSDYSKYLD[Aib]RAAQDFVK([AEEA-AEEA-γGlu-C20 diacid])WL[Met(O2)]DT-NH2; N-terminus assumed)
EC50 [1, 3]: 1.45 nM | hGCGR/hGLP1R (hTone) [1]: 0.8 | EC50 ([1]; summary statement: EC50 at each of the glucagon and GLP-1 receptors, read-out: EC50 at the glucagon receptor): < 5 nM | EC50 [2]: < 5 nM

CC(C)C[C@H](NC(=O)[C@H](Cc1ccc(O)cc1)NC(=O)[C@H](CCCCN)NC(=O)[C@H](CO)NC(=O)[C@H](Cc1ccc(O)cc1)NC(=O)[C@H](CC(=O)O)NC(=O)[C@H](CO)NC(=O)[C@@H](NC(=O)[C@H](Cc1ccccc1)NC(=O)[C@@H](NC(=O)CNC(=O)[C@H](CCC(N)=O)NC(=O)C(C)(C)NC(=O)[C@@H](N)Cc1c[nH]cn1)[C@@H](C)O)[C@@H](C)O)C(=O)N[C@@H](CC(=O)O)C(=O)N[C@@H](C)C(=O)N[C@@H](CCCNC(=N)N)C(=O)N[C@@H](C)C(=O)N[C@@H](C)C(=O)N[C@@H](CCCCNC(=O)COCCOCCNC(=O)COCCOCCNC(=O)CC[C@H](NC(=O)CCCCCCCCCCCCCCCCC(=O)O)C(=O)O)C(=O)N[C@@H](CC(=O)O)C(=O)N[C@@H](Cc1ccccc1)C(=O)N[C@H](C(=O)N[C@@H](CCC(N)=O)C(=O)N[C@@](C)(Cc1c[nH]c2ccccc12)C(=O)N[C@@H](CC(C)C)C(=O)N[C@@H](CCS(C)(=O)=O)C(=O)N[C@@](C)(CC(=O)O)C(=O)N[C@H](C(N)=O)[C@@H](C)O)C(C)C [TP632] (H-H[Aib]QGTFTSDYSKYLDARAAK([AEEA-AEEA-γGlu-C18 diacid])DFVQ[αMeW]L[Met(O2)][αMeD]T-NH2)
hGCGR/hGLP1R (hTone) [1]: 0.9

CC(C)C[C@H](NC(=O)[C@H](Cc1ccc(O)cc1)NC(=O)[C@H](CCCCN)NC(=O)[C@H](CO)NC(=O)[C@H](Cc1ccc(O)cc1)NC(=O)[C@H](CC(=O)O)NC(=O)[C@H](CO)NC(=O)[C@@H](NC(=O)[C@H](Cc1ccccc1)NC(=O)[C@@H](NC(=O)CNC(=O)[C@H](CCC(N)=O)NC(=O)C(C)(C)NC(=O)[C@@H](N)Cc1c[nH]cn1)[C@@H](C)O)[C@@H](C)O)C(=O)N[C@@H](CC(=O)O)C(=O)N[C@@H](C)C(=O)N[C@@H](CCCNC(=N)N)C(=O)N[C@@H](C)C(=O)N[C@@H](C)C(=O)N[C@@H](CCC(N)=O)C(=O)N[C@@H](CC(=O)O)C(=O)N[C@@H](Cc1ccccc1)C(=O)N[C@H](C(=O)N[C@@H](Cc1ccc(CNC(=O)CC[C@H](NC(=O)CCCCCCCCCCCCCCCCC(=O)O)C(=O)O)cc1)C(=O)N[C@@H](Cc1c[nH]c2ccccc12)C(=O)N[C@@H](CC(C)C)C(=O)N[C@@H](CC(C)C)C(=O)N[C@@H](CC(=O)O)C(=O)N[C@H](C(N)=O)[C@@H](C)O)C(C)C [TP639] (H-H[Aib]QGTFTSDYSKYLDARAAQDFV[Phe(4-CH2NH2)]([γGlu-C18 diacid])WLLDT-NH2; N-terminus assumed)
hGCGR/hGLP1R (hTone) [1]: 1.6

CC(C)C[C@H](NC(=O)[C@H](CC(C)C)NC(=O)[C@H](CCCCN)NC(=O)[C@H](CO)NC(=O)[C@H](Cc1ccc(O)cc1)NC(=O)[C@H](CC(=O)O)NC(=O)[C@H](CO)NC(=O)[C@@H](NC(=O)[C@H](Cc1ccccc1)NC(=O)[C@@H](NC(=O)CNC(=O)[C@H](CCC(N)=O)NC(=O)C(C)(C)NC(=O)[C@@H](N)Cc1c[nH]cn1)[C@@H](C)O)[C@@H](C)O)C(=O)N[C@@H](CC(=O)O)C(=O)N[C@@H](C)C(=O)N[C@@H](CCCNC(=N)N)C(=O)N[C@@H](C)C(=O)N[C@@H](C)C(=O)N[C@@H](CCCCNC(=O)COCCOCCNC(=O)COCCOCCNC(=O)CC[C@H](NC(=O)CCCCCCCCCCCCCCCCC(=O)O)C(=O)O)C(=O)N[C@@H](CC(=O)O)C(=O)N[C@@H](Cc1ccccc1)C(=O)N[C@H](C(=O)N[C@@H](CCC(N)=O)C(=O)N[C@@H](Cc1c[nH]c2ccccc12)C(=O)N[C@@H](CC(C)C)C(=O)N[C@@H](CCS(C)(=O)=O)C(=O)N[C@@](C)(CC(=O)O)C(=O)N[C@H](C(N)=O)[C@@H](C)O)C(C)C [TP640] (H-H[Aib]QGTFTSDYSKLLDARAAK([AEEA-AEEA-γGlu-C18 diacid])DFVQWL[Met(O2)][αMeD]T-NH2)
hGCGR/hGLP1R (hTone) [1]: 0.8

CC(C)C[C@H](NC(=O)[C@H](Cc1c[nH]c2ccccc12)NC(=O)[C@H](CCC(N)=O)NC(=O)[C@@H](NC(=O)[C@H](Cc1ccccc1)NC(=O)[C@H](CC(=O)O)NC(=O)[C@H](CCC(N)=O)NC(=O)[C@H](C)NC(=O)[C@H](C)NC(=O)[C@H](CCCNC(=N)N)NC(=O)C(C)(C)NC(=O)[C@H](CC(=O)O)NC(=O)[C@H](CC(C)C)NC(=O)[C@H](Cc1ccc(O)cc1)NC(=O)[C@H](CCCCN)NC(=O)[C@H](CO)NC(=O)[C@H](Cc1ccc(O)cc1)NC(=O)[C@H](CC(=O)O)NC(=O)[C@H](CO)NC(=O)[C@@H](NC(=O)[C@H](Cc1ccccc1)NC(=O)[C@@H](NC(=O)CNC(=O)[C@H](CCC(N)=O)NC(=O)[C@@H](CO)NC(=O)[C@@H](N)Cc1c[nH]cn1)[C@@H](C)O)[C@@H](C)O)C(C)C)C(=O)N[C@@H](CC(C)C)C(=O)N[C@@H](CCCCNC(=O)COCCOCCNC(=O)COCCOCCNC(=O)CC[C@H](NC(=O)CCCCCCCCCCCCCCCCC(=O)O)C(=O)O)C(=O)N[C@H](C(=O)N[C@@H](CCCCN)C(=O)N[C@@H](CCC(N)=O)C(=O)O)[C@@H](C)O [TP685] (H-H[dS]QGTFTSDYSKYLD[Aib]RAAQDFVQWLLK([AEEA-AEEA-γGlu-C18 diacid])TKQ-OH; N-terminus and C-terminus assumed)
hGCGR/hGLP1R (hTone) [1]: 7.9

CC(C)C[C@H](NC(=O)[C@H](Cc1ccc(O)cc1)NC(=O)[C@H](CCC(=O)O)NC(=O)[C@H](CO)NC(=O)[C@H](Cc1ccc(O)cc1)NC(=O)[C@H](CC(=O)O)NC(=O)[C@H](CO)NC(=O)[C@@H](NC(=O)[C@H](Cc1ccccc1)NC(=O)[C@@H](NC(=O)CNC(=O)[C@H](CCC(N)=O)NC(=O)C(C)(C)NC(=O)[C@@H](N)Cc1c[nH]cn1)[C@@H](C)O)[C@@H](C)O)C(=O)N[C@@H](CC(=O)O)C(=O)N[C@@H](CCCCN)C(=O)N[C@@H](CCCNC(=N)N)C(=O)N[C@@H](C)C(=O)N[C@@H](C)C(=O)N[C@@H](CCC(N)=O)C(=O)N[C@@H](CC(=O)O)C(=O)N[C@@H](Cc1ccccc1)C(=O)N[C@H](C(=O)N[C@@H](CCCCNC(=O)COCCOCCNC(=O)COCCOCCNC(=O)CC[C@H](NC(=O)CCCCCCCCCCCCCCCCC(=O)O)C(=O)O)C(=O)N[C@@H](Cc1c[nH]c2ccccc12)C(=O)N[C@@H](CC(C)C)C(=O)N[C@@H](CCS(C)(=O)=O)C(=O)N[C@@H](CC(=O)O)C(=O)N[C@H](C(N)=O)[C@@H](C)O)C(C)C [TP700] (H-H[Aib]QGTFTSDYSEYLDKRAAQDFVK([AEEA-AEEA-γGlu-C18 diacid])WL[Met(O2)]DT-NH2)
EC50 [1, 3]: > 4.9 nM

CCCCCCCCCCCCCCCc1cn(CCCC[C@H](NC(=O)[C@H](CC(=O)O)NC(=O)[C@H](CO)NC(=O)[C@@H](NC(=O)[C@H](Cc2ccccc2)NC(=O)[C@@H](NC(=O)CNC(=O)[C@H](CCC(N)=O)NC(=O)[C@@H](CO)NC(=O)[C@@H](N)Cc2c[nH]cn2)[C@@H](C)O)[C@@H](C)O)C(=O)N[C@@H](CO)C(=O)N[C@@H](CCCCN)C(=O)N[C@@H](Cc2ccc(O)cc2)C(=O)N[C@@H](CC(C)C)C(=O)N[C@@H](CC(=O)O)C(=O)N[C@@H](C)C(=O)N[C@@H](CCCNC(=N)N)C(=O)N[C@@H](C)C(=O)N[C@@H](C)C(=O)N[C@@H](CCC(N)=O)C(=O)N[C@@H](CC(=O)O)C(=O)N[C@@H](Cc2ccccc2)C(=O)N[C@H](C(=O)N[C@@H](CCC(N)=O)C(=O)N[C@@H](Cc2c[nH]c3ccccc23)C(=O)N[C@@H](CC(C)C)C(=O)N[C@@H](CC(C)C)C(=O)N[C@@H](CC(=O)O)C(=O)N[C@H](C(N)=O)[C@@H](C)O)C(C)C)nn1 [TP829]
hGCGR/hGLP1R (hTone) [1]: 1.56

HsQGTFTSDNle(1,2,3-triazole-4-C4-Lys-C16)SKYLDARAAQDFVQWLLDT-NH2 (HXQGTFTSDXSKYLDARAAQDFVQWLLDT; D-Ser, Nle-triazole-C4-Lys-C16 lipid; C-terminal amide; peptide TP831; (2)..(2) Xaa is D-Serine; (10)..(10) Xaa is Nle(1,2,3-triazole-4-C4-Lys-C16); (29)..(29) Xaa is C-terminal amide)
hGCGR/hGLP1R (hTone) [1]: 1.66

HsQGTFTSDNle(1,2,3-triazole-4-γE-C16)SKYLDARAAQDFVQWLLDT-NH2 (HXQGTFTSDXSKYLDARAAQDFVQWLLDT; D-Ser, Nle-triazole-γE-C16 lipid; C-terminal amide; peptide TP830; (2)..(2) Xaa is D-Serine; (10)..(10) Xaa is Nle(1,2,3-triazole-4-gammaGlu-C16); (29)..(29) Xaa is C-terminal amide)
hGCGR/hGLP1R (hTone) [1]: 0.64
